What all share (experiment): Post-emergence test, greenhouse
What all share (type): in vivo

In experiment [1] the test system is Capsella bursa-pastoris. The following applies: I1 250, triasulfuron 3.5, mixture 250 + 3.75 g a.i./ha, evaluation 20 days after application. An excerpt:
(§1) The herbicidal action to be expected We for a given combination of two herbicides can be calculated as follows (see COLBY, S. R., “Calculating synergistic and antagonistic response of herbicide combinations”, Weeds 15, pages 20-22, 1967):
(§2) Post-emergence application of mixtures of a herbicide of formula I wherein R is CH3; R1 is 4-fluorine; R2 is 3-acetonitrile; and R3 and R4 are hydrogen (=herbicide no. 11) with the co-herbicide dicamba at 500 g/ha and 30 g/ha, respectively, in Table B1, and of a herbicide of formula I wherein R is CH3; R1 is 4-fluorine; R2 is 3-acetonitrile; and R3 and R4 are hydrogen (=herbicide no. I1) with the co-herbicide triasulfuron at 250 g/ha and 3.75 g.ha, respectively, in Table B2.
(§3) The test plants are grown to the 2- to 3-leaf stage in plastics pots under greenhouse conditions. A standard soil is used as cultivation substrate. At the 2- to 3-leaf stage, the herbicides are applied to the test plants on their own and as a mixture. The application is carried out using an aqueous suspension of the test compounds in 500 litres of water/ha. The rates of application depend on the optimum doses ascertained under field conditions and greenhouse conditions. […]

Experiment [2] concerns Galium aparine. The following applies: evaluation 20 days after application.
Source text: as §1, §2, §3

The subject of experiment [3] is Kochia scoparia. The following applies: I1 250, triasulfuron 3.5, mixture 250 + 3.75 g a.i./ha, evaluation 20 days after application.
Source text: as §1, §2, §3

Experiment [4] deals with Lamium purpureum. The following applies: I1 250, triasulfuron 3.5, mixture 250 + 3.75 g a.i./ha, evaluation 20 days after application.
Source text: as §1, §2, §3

For experiment [5], the system named is Matricaria chamomilla. The following applies: I1 250, triasulfuron 3.5, mixture 250 + 3.75 g a.i./ha, evaluation 20 days after application.
Source text: as §1, §2, §3

In experiment [6] the test system is Polygonum convolvulus. The following applies: I1 250, triasulfuron 3.5, mixture 250 + 3.75 g a.i./ha, evaluation 20 days after application.
Source text: as §1, §2, §3

In experiment [7] the test system is hard wheat. As to conditions: I1 250, triasulfuron 3.5, mixture 250 + 3.75 g a.i./ha, evaluation 10 days after application.
Source text: as §1, §2, §3

Experiment [8] concerns winter wheat.
Source text: as §1, §2, §3

For experiment [9], the system named is Raphnus raphanistrum. As to conditions: I1 500, dicamba 30, mixture 500 + 30 g a.i./ha, evaluation 20 days after application. The procedure: (§4) The herbicidal action to be expected We for a given combination of two herbicides can be calculated as follows (see COLBY, S. R., “Calculating synergistic and antagonistic response of herbicide combinations”, Weeds 15, pages 20-22, 1967): […] Post-emergence application of mixtures of a herbicide of formula I wherein R is CH3; […] R2 is 3-acetonitrile; and R3 and R4 are hydrogen (=herbicide no. […] The test plants are grown to the 2- to 3-leaf stage in plastics pots under greenhouse conditions. A standard soil is used as cultivation substrate. At the 2- to 3-leaf stage, the herbicides are applied to the test plants on their own and as a mixture. The application is carried out using an aqueous suspension of the test compounds in 500 litres of water/ha. The rates of application depend on the optimum doses ascertained under field conditions and greenhouse conditions.

The test system of experiment [10] is Stellaria media. The following applies: I1 500, dicamba 30, mixture 500 + 30 g a.i./ha, evaluation 20 days after application. The procedure: as §4
The subject of experiment [11] is Veronica persica. As to conditions: I1 500, dicamba 30, mixture 500 + 30 g a.i./ha, evaluation 20 days after application. The procedure:
as §4

Experiment [12] deals with Viola tricolor. As to conditions: I1 500, dicamba 30, mixture 500 + 30 g a.i./ha, evaluation 20 days after application. The procedure: as §4
For experiment [13], the system named is winter barley. As to conditions: I1 500, dicamba 30, mixture 500 + 30 g a.i./ha, evaluation 20 days after application. Here is the method: as §4

The structures appear in SMILES notation.

On to `COc1nc(C)nc(NC(=O)NS(=O)(=O)c2ccccc2OCCCl)n1` [triasulfuron], for which the “% action, Caps. bursa-past.” value in experiment [1] is 98%. Also, the “% action, Gal. apar.” value in experiment [2] (I1 250, triasulfuron 3.5, mixture 250 + 3.75 g a.i./ha) worked out at 70%. For the same compound, the “% action, Kochia scop.” value in [3] was 95%. Also, the “% action, Lamium purpur.” value in experiment [4] worked out at 90%. Besides, in experiment [5], the “% action, Matr. cham.” value was found to be 95%. For the same compound, the “% action, Polyg. conv.” value in experiment [6] was 80%. Moreover, the “% action, H. wheat” value in [7] is 0%. Moreover, the “% action, W. wheat” value in [8] (I1 250, triasulfuron 3.5, mixture 250 + 3.75 g a.i./ha, evaluation 10 days after application) is listed as 0%.

Turning to `COc1c(Cl)ccc(Cl)c1C(=O)O` [dicamba], in [2] (I1 500, dicamba 30, mixture 500 + 30 g a.i./ha), the “% action, Galium aparine” value was 40%. The “% action, Wheat” value in [8] (I1 500, dicamba 30, mixture 500 + 30 g a.i./ha, evaluation 20 days after application, 100%=plant has died) is given as 0%. The “% action, Raphnus raphan.” value in experiment [9] came to 20%. The “% action, Stellaria media” value in experiment [10] came out at 20%. The “% action, Veronica persica” value in experiment [11] was determined as 20%. For the same compound, the “% action, Viola tric.” value in experiment [12] was determined as 0%. Also, in [13], the “% action, Barley” value is 10%.

Values taken from patent US20040209775A1, “Herbicidal composition” (priority 2001, published 2004).
